Test results: patent publication US20250034165A1, “COMPOUND CONTAINING CYCLOALKYL OR HALOALKYL” (CHIA TAI TIANQING PHARMACEUTICAL GROUP CO., LTD., priority 2021, published 2025)
Where two headings read alike, the source gives them in different places.

How the values were obtained:
[1] = test system: PC-9 EGFR-Del19-T790M-C797S cells; assay: Inhibition of proliferation of PC-9-EGFR (Del19 T790M C797S) cells, CCK-8; type: cell-based; details: 72 h, read-out: PC-9-EGFR (Del19 T790M C797S) cell inhibitory activity IC50
Experimental: PC-9 EGFR-Del19-T790M-C797S cells in the logarithmic growth phase and good conditions were taken, washed with PBS, digested with pancreatin, terminated with a complete medium, collected and added to a centrifuge tube, adjusted to a cell density of 2×10^4 cells/mL, and seeded in a 96-well plate (100 μL/well). Meanwhile, compounds were loaded using a nanoliter pipettor resulting in the final concentrations of the compounds of 1000 nM-0.06 nM, and a control was set, replicate wells for each concentration. After 72 h of incubation in the cell incubator, the assay reagent CCK-8 (manufacturer: Dojindo Laboratories, Beijing; 10 μL/well) was added. After 2 h of incubation in the cell incubator, absorbance was measured at 450 nm on a PerkinElmer Envision microplate reader, and the inhibition rate was calculated.
(§1) Inhibition rate (%)=(mean value of negative control group-mean value of experimental group)/(mean value of negative control group−mean value of blank group)×100%.
(§2) A dose-response curve was fitted by four-parameter analysis, with the logarithm of compound concentration serving as abscissa and inhibition rate serving as ordinate, such that IC50 was calculated.

[2] = molecular target: EGFR (d746-750 (d19)/T790M) (Homo sapiens (Human), UniProt P00533, DEL746-750/T790M); assay: Inhibitory activity for EGFR (d746-750 (d19)/T790M) kinase; type: biochemical; details: ATP 5 μM
Experimental: 1.3 Screening for Inhibitory Activity for EGFR (d746-750 (d19)/T790M) Kinase
(§3) A 50 ng/μL EGFR (d746-750/T790M, Carna) stock solution was diluted with a kinase buffer (50 mM HEPES, 10 mM MgCl2, 2 mM DTT, 1 mM EGTA, 0.01% Tween 20), and 6 μL of 1.67× working solution at 0.005 ng/μL (final concentration: 0.003 ng/μL) was added to each well. Different compounds dissolved in DMSO were added to the wells using a nanoliter pipettor, resulting in the final concentrations of the compounds of 10 nM to 0.0024 nM (4-fold gradient for 7 concentrations in total), and blank control wells (without enzyme) and negative control wells (with enzyme, plus vehicle DMSO) were set, 2 replicate wells for each concentration. After enzyme was reacted with the compound or vehicle for 30 min, 5×ATP at 25 μM (final concentration: 5 μM, Sigma) prepared with a kinase buffer was mixed with 5× substrate at 0.5 μM (final concentration: 0.1 μM, ULight-poly GT, PerkinElmer) at a ratio of 1:1 (v:v), and the mixture was added to each well at 4 μL/well. After being sealed with a film, the plate was incubated at room temperature for 2 h, and then 5 μL of 4×EDTA at 40 mM (final concentration: 10 mM) was added to each well. After the plate was incubated for 5 min at room temperature, 5 μL of 4× detection reagent at 8 nM (final concentration: 2 nM, Eu-anti-phospho-tyrosine antibody, PerkinElmer) was added to each well. After being incubated at room temperature for 1 h, the plate was read using a PerkinElmer Envision multi-mode microplate reader (excitation: 320 nm, emission: 665 nm), and IC50 was calculated by four-parameter fitting.

[3] = test system: BAF3-EGFR (L858R/T790M/C797S) cells; assay: Inhibition of proliferation of BAF3-EGFR (L858R/T790M/C797S) cells, CCK-8; type: cell-based; details: Ba/F3 EGFR, 72 h, read-out: BAF3(EGFR T790M L858R C797S) cell inhibitory activity IC50
Experimental: A flask of EGFR (L858R/T790M/C797S) cells in the logarithmic growth phase and good conditions was taken, and the cells were collected and added to a centrifuge tube. 20 μL of cells were taken and counted, and the required number of cells (mL) was pipetted and centrifuged at 1200 rpm for 3 min. The supernatant was discarded, and an appropriate amount of plating medium (RPMI medium+10% FBS) was added to adjust the cell density to 1.5×10^5 cells/mL. The cells were seeded on a 96-well plate at 100 μL/well using a multi-channel pipette and cultured in a cell incubator at 37° C., 5% CO2 with saturated humidity. After overnight incubation, compounds were loaded using a nanoliter pipettor, 2 duplicate wells were set for each concentration, and cells without compound added were used as negative controls.
as §1, §2

[4] = In vivo pharmacokinetics in ICR mice; details: for AUC(0-inf) / AUC(0-t) / MRT last / half-life / bioavailability / Cmax / Tmax: mouse, plasma; for AUC(0-t): read-out: AUC(0-t); for MRT last: read-out: MRT(0-t); for half-life: read-out: T½ (converted); for bioavailability: 10 mg/kg, PO vs IV; for Cmax: read-out: Cmax; for Tmax: read-out: Tmax
Experimental: The animals to be tested (ICR mice) were fasted for 12 h before administration and food was provided 4 h after administration, and water was freely drunk before and after the experiment and during the experiment.
After intragastric administration, about 0.1 mL of blood was collected from the orbit at 0 min, 15 min, 30 min, 1 h, 2 h, 4 h, 6 h, 8 h, 10 h, and 24 h. After anticoagulation with EDTA-K2, blood samples were transferred to a centrifuge within 30 min, and centrifuged at 4000 rpm for 10 min at 4° C. to separate the plasma. All the plasma samples were collected and immediately stored at −20° C. for testing.
300 μL of acetonitrile solution containing an internal standard ([…] diazepam) was added to 20 μL of the plasma sample to be tested and a standard curve sample. The mixture was shaken and homogeneously mixed for 5 min, and centrifuged at 12,000 rpm for 10 min. 70 μL of supernatant was taken and diluted with 70 μL of ultrapure water. After being mixed well, 2 μL of the resulting sample was subjected to LC/MS/MS, and a chromatogram was recorded.

[5] = molecular target: EGFR (d746-750/T790M/C797S) (Homo sapiens (Human), UniProt P00533, C797S/DEL746-750/T790M); assay: Inhibitory activity for EGFR (d746-750/T790M/C797S) kinase; type: biochemical; details: ATP 5 μM; read-out: EGFR(d19/T790M/C797S) (IC50)
Experimental: 1.5 Screening for Inhibitory Activity for EGFR (d746-750/T790M/C797S) Kinase
as §3, with “(d746-750/T790M/C797S, BPS)” for “(d746-750/T790M, Carna)”, “0.05” for “0.005”, “0.03” for “0.003”

Sequence of EGFR (d746-750 (d19)/T790M) (P00533 other isoform, or with tags, fused parts or gaps T790M/del 1-668/del 746-750 limits assumed): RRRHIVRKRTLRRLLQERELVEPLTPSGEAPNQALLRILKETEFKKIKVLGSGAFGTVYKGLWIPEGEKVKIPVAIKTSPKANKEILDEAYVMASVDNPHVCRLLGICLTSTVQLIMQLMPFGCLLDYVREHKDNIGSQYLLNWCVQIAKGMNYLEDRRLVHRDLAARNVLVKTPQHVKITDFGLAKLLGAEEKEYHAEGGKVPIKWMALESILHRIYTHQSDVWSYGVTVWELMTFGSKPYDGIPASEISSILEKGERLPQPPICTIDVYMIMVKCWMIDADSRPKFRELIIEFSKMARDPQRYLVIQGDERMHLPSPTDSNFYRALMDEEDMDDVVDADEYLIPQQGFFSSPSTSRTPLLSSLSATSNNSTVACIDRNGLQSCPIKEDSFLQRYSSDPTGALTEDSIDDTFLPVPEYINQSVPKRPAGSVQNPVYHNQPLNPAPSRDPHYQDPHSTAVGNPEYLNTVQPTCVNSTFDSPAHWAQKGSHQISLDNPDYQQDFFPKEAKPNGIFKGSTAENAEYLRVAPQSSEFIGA
Sequence of EGFR (d746-750/T790M/C797S) (P00533 other isoform, or with tags, fused parts or gaps T790M/C797S/del 1-694/del 746-750 limits assumed): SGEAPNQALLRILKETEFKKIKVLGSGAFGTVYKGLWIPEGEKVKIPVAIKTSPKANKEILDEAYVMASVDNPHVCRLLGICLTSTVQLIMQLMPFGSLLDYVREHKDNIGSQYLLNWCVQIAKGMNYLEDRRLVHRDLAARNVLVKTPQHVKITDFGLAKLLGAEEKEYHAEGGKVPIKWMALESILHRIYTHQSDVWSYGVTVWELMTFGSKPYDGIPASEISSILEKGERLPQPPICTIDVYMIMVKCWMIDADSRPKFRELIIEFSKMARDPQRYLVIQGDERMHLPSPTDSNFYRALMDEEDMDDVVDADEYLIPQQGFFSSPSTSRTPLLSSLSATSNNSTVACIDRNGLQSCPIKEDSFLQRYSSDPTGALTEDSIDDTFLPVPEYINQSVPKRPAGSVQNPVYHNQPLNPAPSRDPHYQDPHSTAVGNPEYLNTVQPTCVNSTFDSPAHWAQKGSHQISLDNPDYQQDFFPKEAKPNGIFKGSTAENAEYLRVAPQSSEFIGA

SMILES	IC50 [1]	IC50 [2]	IC50 [3]	IC50 [5]	other results
Cc1cc2cc(n1)-c1cnn(C)c1OCCC[C@@H](C1CC1)CN1/C(=N/C2=O)Nc2ccc(N(C)[C@@H](C)CN(C)C)cc21 [Example 85]	< 50 nM	–	–	–	–
Cc1cc2cc(n1)-c1cnn(C)c1OCCC[C@@H](C1CC1)CN1/C(=N/C2=O)Nc2ccc(NC3CC(N(C)C)C3)cc21 (some centres unmarked) [Example 98]	< 50 nM	0.087 nM	< 5 nM	–	–
[2H]C([2H])([2H])N(CCN(C)C)c1ccc2c(c1)N1C[C@H](C3CC3)CCCOc3c(cnn3C)-c3cc(cc(C)n3)C(=O)/N=C/1N2 [Example 116]	< 50 nM	–	–	–	–
Cc1cc2cc(n1)-c1cnn(C)c1OCCC[C@@H](C1CC1)CN1/C(=N/C2=O)Nc2ccc(N(C)C3CCN(C)CC3)cc21 [Example 117]	< 50 nM	0.12 nM	–	–	CLz ([4]; IV): 58.2 mL/min/kg; AUC(0-inf) ([4]; 1 mg/kg, IV): 286 ng·h/mL; AUC(0-t) ([4]; 1 mg/kg, IV): 284 ng·h/mL; MRT last ([4]; 1 mg/kg, IV): 3.3 h; half-life ([4]; 1 mg/kg, IV): 2.18 h; bioavailability [4]: 29.1%; AUC(0-inf) ([4]; PO, 10 mg/kg intragastric): 848 ng·h/mL; AUC(0-t) ([4]; PO, 10 mg/kg intragastric): 826 ng·h/mL; Cmax ([4]; PO, 10 mg/kg intragastric): 77.1 ng/mL; MRT last ([4]; PO, 10 mg/kg intragastric): 6.79 h; Tmax ([4]; PO, 10 mg/kg intragastric): 6 h; half-life ([4]; PO, 10 mg/kg intragastric): 4.17 h
[2H]C([2H])([2H])N(C[C@H](C)Nc1ccc2c(c1)N1C[C@H](C3CC3)CCCOc3c(cnn3C)-c3cc(cc(C)n3)C(=O)/N=C/1N2)C([2H])([2H])[2H] [Example 123]	< 50 nM	–	< 5 nM	0.1 nM	–
Cc1cc2cc(n1)-c1cnn(C)c1OCCC[C@@H](C1CC1)CN1/C(=N/C2=O)Nc2ccc(N[C@H]3C[C@H](N(C)C)C3)cc21 [Example 128]	< 50 nM	0.13 nM	–	–	CLz ([4]; IV): 75.3 mL/min/kg; AUC(0-inf) ([4]; 1 mg/kg, IV): 221 ng·h/mL; AUC(0-t) ([4]; 1 mg/kg, IV): 214 ng·h/mL; MRT last ([4]; 1 mg/kg, IV): 1.65 h; half-life ([4]; 1 mg/kg, IV): 2.17 h; bioavailability [4]: 30.5%; AUC(0-inf) ([4]; PO, 10 mg/kg intragastric): 662 ng·h/mL; AUC(0-t) ([4]; PO, 10 mg/kg intragastric): 654 ng·h/mL; Cmax ([4]; PO, 10 mg/kg intragastric): 57.8 ng/mL; MRT last ([4]; PO, 10 mg/kg intragastric): 6.81 h; Tmax ([4]; PO, 10 mg/kg intragastric): 6 h; half-life ([4]; PO, 10 mg/kg intragastric): 3.46 h
Cc1cc2cc(n1)-c1cnn(C)c1OCCC[C@@H](C1CC1)CN1/C(=N/C2=O)Nc2ccc(N[C@H]3CC[C@H](N(C)C)C3)cc21 [Example 136]	< 50 nM	0.15 nM	–	–	–
Cc1cc2cc(n1)-c1cnn(C)c1OCCC[C@@H](C1CC1)CN1/C(=N/C2=O)Nc2cc(N[C@H](C)CCN3CCCCC3)ccc21 [Example 139]	< 50 nM	–	< 5 nM	0.076 nM	–
Cc1cc2cc(n1)-c1cnn(C)c1OCCC[C@@H](C1CC1)CN1/C(=N/C2=O)Nc2ccc(N[C@H](C)CN3CCCCC3)cc21 [Example 141]	< 50 nM	–	< 5 nM	0.072 nM	–
Cc1cc2cc(n1)-c1cnn(C)c1OCCC[C@@H](C1CC1)CN1/C(=N/C2=O)Nc2ccc(N[C@H](C)CCN3CCCCC3)cc21 [Example 143]	< 50 nM	–	< 5 nM	0.079 nM	–
Cc1cc2cc(n1)-c1cnn(C)c1OCCC[C@@H](C1CC1)CN1/C(=N/C2=O)Nc2ccc(N[C@@H](C)CCN3CCCCC3)cc21 [Example 144]	< 50 nM	–	< 5 nM	0.068 nM	–
[2H]C([2H])([2H])N(C[C@@H](C)Nc1ccc2c(c1)N/C1=N\C(=O)c3cc(C)nc(c3)-c3cnn(C)c3OCCC[C@@H](C3CC3)CN12)C([2H])([2H])[2H] [Example 146]	< 50 nM	–	< 5 nM	0.074 nM	–
Cc1cc2cc(n1)-c1cnn(C)c1OCCC[C@@H](C1CC1)CN1/C(=N/C2=O)Nc2cc(N[C@H]3CC[C@H](O)CC3)ccc21 [Example 151]	< 50 nM	–	< 5 nM	0.12 nM	–
